Assay results published in US12509437B2, “Substituted thiophene carboxamides and derivatives thereof as microbicides” (Bayer Aktiengesellschaft, priority 2019, dated 2025).
Like-named read-outs stand apart in the source and are kept apart here. Marks after values point to notes of the source that are not given here.

Tests used:
[1] = tested on: Xanthomonas campestris pv. campestris; test: In vivo preventive test on Xanthomonas campestris pv. campestris (black rot on cabbage); conditions: sprayed 72 hours before inoculation, evaluated 8 or 10 days after inoculation; for pest or weed control at 31 ppm / pest or weed control at 500 ppm / pest or weed control at 125 ppm: Xanthomonas campestris, read-out: efficacy; for pest or weed control at 500 ppm: 500 ppm of active ingredient; for pest or weed control at 125 ppm: 125 ppm of active ingredient
How it was run: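 Young cabbage plants sprayed preventively with compound formulated in acetone/DMSO/Tween and diluted in water, then inoculated 72 h later with a bacterial spray. Kept at 27° C, 95% relative humidity; disease scored after 8 or 10 days as % efficacy versus solvent-treated controls (0% = control, 100% = no disease).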

[2] = tested on: Pseudomonas syringae pv. tomato; test: In vivo preventive test on Pseudomonas syringae pv. tomato (bacterial speck on tomato); conditions: sprayed 72 hours before inoculation, evaluated 5 or 6 days after inoculation, read-out: efficacy; for pest or weed control at 500 ppm: 500 ppm of active ingredient; for pest or weed control at 125 ppm: 125 ppm of active ingredient
Procedure: The tested active ingredients were prepared by homogenization in a mixture of acetone/Dimethyl sulfoxide/Tween®, and then diluted with water to obtain the desired active material concentration.
The young plants of tomato were treated by spraying the active ingredient prepared as described above. Control plants were treated only with an aqueous solution of acetone/Dimethyl sulfoxide/Tween®.
After 72 hours, the plants were contaminated by spraying the leaves with an aqueous bacteria suspension of Pseudomonas syringae pv. tomato. The contaminated tomato plants were incubated for 4 days in saturated atmosphere at 22° C. day/20° C. night−70% HR and then for 1 or 2 days at 22° C. day/20° C. night at 70-80% relative humidity.
The test was evaluated 5 or 6 days after the inoculation. 0% means an efficacy which corresponds to that of the control plants while an efficacy of 100% means that no disease was observed.

Uromyces appendiculatus = test: In vivo preventive test on Uromyces appendiculatus (bean rust); conditions: 240 h, sprayed 72 hours before inoculation, evaluated 10 days after inoculation, read-out: efficacy; for pest or weed control at 125 ppm: 125 ppm of active ingredient; for pest or weed control at 31 ppm: 31 ppm of active ingredient; for pest or weed control at 500 ppm: 500 ppm of active ingredient
How it was run: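 Young bean plants sprayed with compound in acetone/DMSO/Tween diluted in water, then inoculated 72 h later with spore suspension. Incubated 24 h at 20° C., 100% RH, then 9 days at 20° C., 70-80% RH. Efficacy scored 10 days post-inoculation, 0% = untreated-control level, 100% = no disease.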

[3] = tested on: Colletotrichum lindemuthianum; test: In vivo preventive test on Colletotrichum lindemuthianum (Anthracnose on bean); conditions: sprayed 72 hours before inoculation, evaluated 6 days after inoculation; for pest or weed control at 125 ppm / pest or weed control at 500 ppm / pest or weed control at 31 ppm: Colletotrichum lindemuthianum, 144 h, read-out: efficacy; for pest or weed control at 500 ppm: 500 ppm of active ingredient; for pest or weed control at 31 ppm: 31 ppm of active ingredient
How it was run: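 Young bean plants were sprayed with compound in acetone/DMSO/Tween diluted in water, then inoculated 72 h later with C. lindemuthianum spores. Incubation was 24 h at 20 °C/100% RH, then 5 days at 20 °C/90% RH. Efficacy scored 6 days post-inoculation: 0% equals solvent-treated control, 100% means no disease.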

Peronospora parasitica = test: In vivo preventive test on Peronospora parasitica (Crucifer downy mildew) on cabbage; conditions: Hyaloperonospora parasitica, 120 h, sprayed 72 hours before inoculation, evaluated 5 days after inoculation, read-out: efficacy; for pest or weed control at 31 ppm: 31 ppm of active ingredient; for pest or weed control at 125 ppm: 125 ppm of active ingredient; for pest or weed control at 500 ppm: 500 ppm of active ingredient
How it was run: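 Young cabbage plants were sprayed with compound in aqueous acetone/DMSO/Tween, then inoculated 72 h later with P. parasitica spores and held 5 days at 20 °C, 100% RH. Efficacy scored 5 days post-inoculation: 0% equals solvent-treated controls, 100% means no disease.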

[4] = tested on: Pseudomonas syringae pv. tomato; test: Pseudomonas syringae pv. tomato in vitro cell test; type: cell-based; conditions: 20 ppm of active ingredient, 24 h of incubation, read-out: efficacy (inhibition of bacteria growth; no direct activity)
How it was run: (§1)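 Bacteria from liquid pre-culture diluted to set OD in LB broth and exposed to compounds dissolved in DMSO (final ≤1%). After 24 h, growth read by absorbance; inhibition derived relative to compound-free control wells.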

[5] = LogP by HPLC on reversed phase columns (EEC directive 79/831 Annex V.A8); type: physicochemical; conditions: reversed phase HPLC columns
How it was run: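 Reversed-phase HPLC, calibrated with straight-chain alkan-2-ones (C3–C16) of known LogP; values by linear interpolation of retention times between successive alkanones. Multiple values from one method are joined by "+"; lambda-max taken from 200–400 nm UV spectra at chromatographic peaks.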

Alternaria alternata = Alternaria alternata in vitro cell test; type: cell-based; conditions: 120 h, 5 days incubation, read-out: efficacy (inhibition of fungal growth; no direct activity); for inhibition at 5 ppm: 5 ppm of active ingredient; for inhibition at 20 ppm: 20 ppm of active ingredient
How it was run: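 A. alternata spores in glucose/peptone/yeast-extract liquid medium were exposed to DMSO-solubilized compound (final DMSO ≤1%). After 5 days incubation, mycelium growth read spectrometrically; inhibition derived from absorbance relative to fungicide-free control wells.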

[6] = tested on: Xanthomonas campestris pv. campestris; test: Xanthomonas campestris pv. campestris in vitro cell test; type: cell-based; conditions: 24 h of incubation, read-out: efficacy (inhibition of bacteria growth; no direct activity); for inhibition at 5 ppm: 5 ppm of active ingredient; for inhibition at 20 ppm: 20 ppm of active ingredient
How it was run: as §1

[7] = tested on: salicylate responsive promoter sequence of the PR1 (pathogenesis-related protein I) gene (AT2G14610); test: Induction of defense gene expression in Arabidopsis thaliana (PR1 promoter-GFP reporter plants); type: in vivo; conditions: 72 h, 3rd day after spraying, mock treated leaves set as 1.00, read-out: relative fluorescence value
How it was run: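 Transgenic A. thaliana carrying GFP under the salicylate-responsive PR1 promoter, grown five days, then sprayed with compounds. Whole-plant fluorescence imaged and quantified on day 3 post-spray, expressed relative to mock-treated leaf background set at 1.00.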

[8] = tested on: Colletotrichum lindemuthianum; test: Colletotrichum lindemuthianum in vitro cell test; type: cell-based; conditions: 144 h, 6 days incubation, read-out: efficacy (inhibition of fungal growth; no direct activity); for inhibition at 5 ppm: 5 ppm of active ingredient; for inhibition at 20 ppm: 20 ppm of active ingredient
How it was run: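 C. lindemuthianum spore suspension grown in liquid glucose/peptone/yeast-extract medium with compound (final DMSO ≤1%). After 6 days, mycelial growth measured by absorbance; inhibition calculated versus fungicide-free control wells.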

chromatographic logP ([5]; method [a])	SMILES	pest or weed control at 31 ppm ([1]; 31 ppm of active ingredient)	pest or weed control at 500 ppm [1]	pest or weed control at 125 ppm (Uromyces appendiculatus)	pest or weed control at 125 ppm ([3]; 125 ppm of active ingredient)	pest or weed control at 31 ppm (Peronospora parasitica)	inhibition at 20 ppm [4]	pest or weed control at 500 ppm (Uromyces appendiculatus)	inhibition at 5 ppm (Alternaria alternata)	inhibition at 20 ppm (Alternaria alternata)	inhibition at 5 ppm [6]	inhibition at 20 ppm [6]	fold induction at 75 ppm [7]	fold induction at 300 ppm [7]	inhibition at 5 ppm [8]	pest or weed control at 125 ppm (Peronospora parasitica)	pest or weed control at 500 ppm (Peronospora parasitica)	pest or weed control at 500 ppm [3]	pest or weed control at 125 ppm [1]	inhibition at 20 ppm [8]	also measured
–	O=C(NC1(C(=O)O)CC1)c1cc(Br)c(Br)s1 [CMP1, reference compound]	10%	0%	–	–	–	–	–	–	–	–	–	–	–	–	–	–	–	–	–	efficacy ([1]; 31 ppm of active ingredient): 10* %; pest or weed control at 500 ppm [2]: 0%
–	O=C(NC(C(=O)O)C1CC1)c1cc(Cl)c(Cl)s1 (centres unmarked) [CMP9, reference compound]	< 20%	0%	< 40%	30%	–	–	–	–	–	–	–	–	–	–	–	–	–	–	–	efficacy ([3]; 125 ppm of active ingredient): 30* %; pest or weed control at 125 ppm [2]: 34%
–	COC(=O)C(NC(=O)c1cc(Br)c(Br)s1)C1CC1 (centres unmarked) [CMP10, reference compound]	< 30%	–	–	–	< 30%	–	–	–	–	–	–	–	–	–	–	–	–	–	–	pest or weed control at 31 ppm (Uromyces appendiculatus): 0%; pest or weed control at 125 ppm [2]: < 40%
–	COC(=O)CC[C@H](NC(=O)c1cc(Cl)c(Cl)s1)C(=O)OC [CMP12, reference compound]	–	–	–	< 20%	–	–	–	–	–	–	–	–	–	–	–	–	–	–	–	pest or weed control at 31 ppm ([2]; 31 ppm of active ingredient): 10%
2.58	CCOC(=O)C(CO)NC(=O)c1sc(Br)c(Br)c1C (centres unmarked) [I.006]	–	80 to 89%	80 to 89%	–	80 to 89%	≤ 30%	90 to 100%	≤ 30%	≤ 30%	≤ 30%	≤ 30%	> 2	> 2	≤ 30%	90 to 100%	90 to 100%	70 to 79%	–	–	pest or weed control at 31 ppm (Uromyces appendiculatus): 90 to 100%
–	CCOC(=O)[C@@H](NC(=S)c1sc(Br)c(Br)c1C)C(C)C [I.023, ethyl N-[(4,5-dibromo-3-methyl-2-thienyl)carbonothioyl]valinate]	–	70 to 79%	–	90 to 100%	80 to 89%	≤ 30%	–	≤ 30%	≤ 30%	≤ 30%	≤ 30%	–	> 2	≤ 30%	90 to 100%	90 to 100%	90 to 100%	80 to 89%	≤ 30%	chromatographic logP ([5]; preparation examples, method not indicated, read-out: Log P): 5.22; pest or weed control at 31 ppm [3]: 90 to 100%
1.5	COC(=O)C(Cc1c[nH]cn1)NC(=O)c1sc(Br)c(Br)c1C (centres unmarked) [I.033]	70 to 79%	–	–	80 to 89%	–	≤ 30%	90 to 100%	≤ 30%	≤ 30%	≤ 30%	≤ 30%	–	> 2	≤ 30%	70 to 79%	80 to 89%	90 to 100%	70 to 79%	≤ 30%	–
2.48	CCOC(=O)C(CO)NC(=O)c1sc(Cl)c(Cl)c1C (centres unmarked) [I.039]	70 to 79%	–	–	–	90 to 100%	≤ 30%	80 to 89%	≤ 30%	≤ 30%	≤ 30%	≤ 30%	> 2	> 2	≤ 30%	90 to 100%	90 to 100%	90 to 100%	70 to 79%	≤ 30%	–
3.37	CCOC(=O)C(COC)NC(=O)c1sc(Cl)c(Cl)c1C (centres unmarked) [I.044]	70 to 79%	–	90 to 100%	90 to 100%	90 to 100%	≤ 30%	90 to 100%	≤ 30%	–	≤ 30%	≤ 30%	> 2	> 2	≤ 30%	90 to 100%	90 to 100%	90 to 100%	80 to 89%	–	pest or weed control at 31 ppm (Uromyces appendiculatus): 90 to 100%; pest or weed control at 31 ppm [3]: 80 to 89%
3.81	CCSC(=O)C1(NC(=O)c2sc(Br)c(Br)c2C)CC1 [I.128]	–	–	–	–	–	–	90 to 100%	–	–	–	–	> 2	> 2	–	90 to 100%	90 to 100%	–	–	–	pest or weed control at 500 ppm [2]: 70 to 79%
2.62	Cc1c(C(=O)NC2(C(=O)O)CCC2)sc(Cl)c1Cl [I.175]	70 to 79%	–	70 to 79%	70 to 79%	90 to 100%	≤ 30%	–	≤ 30%	≤ 30%	≤ 30%	≤ 30%	> 2	> 2	≤ 30%	90 to 100%	–	–	80 to 89%	≤ 30%	–
